Read-outs that look alike come from different tables or passages of the source.
Target: T1, P. aeruginosa PAO1 ModA (Pseudomonas aeruginosa, UniProt Q9I2N2)
T1 construct: N-terminal His6 tag (pMCSG7) cleaved by TEV protease; E. coli BL21-Gold (DE3); metal-free
Experiment: isothermal titration calorimetry
Assay type: binding
Source text: isothermal titration calorimetry on P. aeruginosa PAO1 ModA

T1 sequence (Q9I2N2 23-251): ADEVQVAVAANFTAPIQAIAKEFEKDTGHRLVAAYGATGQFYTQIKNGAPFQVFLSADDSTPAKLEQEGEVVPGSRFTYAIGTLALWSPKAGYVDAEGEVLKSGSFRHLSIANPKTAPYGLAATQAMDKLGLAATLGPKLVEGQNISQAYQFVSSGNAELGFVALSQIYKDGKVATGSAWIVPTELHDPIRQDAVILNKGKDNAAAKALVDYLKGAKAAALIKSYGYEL

[O]=[Mo](=[O])([OH])[OH] [MoO, molybdate]
Kd (read-out: MoO-ModA): 1 ± 1.3 nM

[O]=[W](=[O])([OH])[OH] [WO, tungstate]
Kd (read-out: WO-ModA): 1.2 ± 2 nM

[O]=[Cr](=[O])([OH])[OH] [CrO, chromate]
Kd (read-out: CrO-ModA): 927 ± 87.7 nM
